The text below walks through data of US20230255975A1, “METHODS FOR TREATING CANCER WITH COMBINATION THERAPIES” (Celgene Corporation, priority 2020, published 2023).

Each structure is given as a SMILES string.

As usually defined, the EC50 is the concentration needed to bring the measured effect to its halfway point.

What all share (type): cell-based
For assay [1], the system named is BIRC5 (Survivin) in MM1.S cell line. The experiment in a line: BIRC5 levels in response to Compound 5. Particulars: 48 and 72 hours, followed by onset of apoptosis. How it is done: BIRC5 levels decreased in response to Compound 5 treatment at 48 and 72 hours, followed by an onset of apoptosis in MM1.S cell line (FIG. 23B).
A further assay concerns MM cell lines. The experiment in a line: Cell cycle analysis (PI staining, flow cytometry) in response to Compound 5. The settings on record: for sub-G1 population: vehicle 5.02, cell line not named; for G2-M population: vehicle 16.3; for G0-G1 population: vehicle 69.2. The protocol:
(§1) Flow cytometry: Annexin-V Alexa Fluor 488-conjugated antibody (Thermo Scientific, Waltham, Mass., USA) and To-Pro-3 (Thermo Scientific, Waltham, Mass., USA) were used according to the manufacturer's protocol and processed using Flow Jo software for at least three independent experiments. For cell cycle analysis, cells were stained with Propidium Iodide (PI) staining kit (Abcam, Cambridge, Mass., USA) and analysis was performed on Flow Jo V10 software. Staining of mitotic marker pHH3-Ser^10 was also performed by pHH3-Ser^10 and PI dual staining.
(§2) The changes in phospho Ser10-histone H3 which is a specific marker for G2-M phase using flow cytometry were measured. […] Nocodazole synchronizes cells in G2-M phase of cell cycle. At time points 30 minutes, 2 hours and 6 hours post rescue from overnight Nocodazole treatment, PLK1 levels were higher compared to vehicle condition (FIG. 3). Then, due to rescue from cell cycle synchronization post Nocodazole treatment, PLK1 levels normalized. In response to Compound 5 treatment, while Ikaros degradation began to happen after 30 minutes of treatments, downregulation of PLK1 and CDC25C levels was evident at 48 hours post treatment. In response to Nocodazole and Compound 5 combination treatment, the decrease in PLK1 levels was accelerated. Changes in cleaved caspase 3 inversely correlated with PLK1 levels, with an increase in cleaved caspase 3 at 48 and 72 hours post Compound 5 treatment with a decrease in PLK1 levels. Cell cycle studies matched with these time points. […] In case of Nocodazole and Compound 5 combination treatment, an accelerated decrease in G2-M cells and a higher increase in sub-G1 cells was observed.
Background: A flow cytometer gives signals particle by particle.

The subject of assay [2] is AMO1 NEK2 shRNA (NEK2 knocked-down) cells. The experiment in a line: Proliferation assay in NEK2 knocked-down cells. The protocol:
(§3) Proliferation and viability assay. Cell growth curves were determined by monitoring the viability of cells with Trypan blue exclusion on a Vi-Cell-XR (Becton Dickinson, Franklin Lakes, N.J., USA). Cell lines were plated in triplicate in 96-well round-bottom plates with the indicated drug concentrations or knockdown cells. Proliferation assays were performed in triplicate at least three times (n=3) using either the WST-1 tetrazolium salt (Roche Applied Science) reagent used according to the manufacturer's specifications or by (3H)-thymidine incorporation as previously described (Bjorklund et al., Blood Cancer Journal 5, e354, 2015). All data were plotted and analyzed using GraphPad Prism 7 (GraphPad Software, La Jolla, Calif., USA) software, represented as the mean with an error determined as ±s.d.
(§4) To further confirm the synergistic effect, shRNA knockdown was combined with either Compound 5 or Compound 6 treatment. Expression of control and NEK2 shRNA in AMO1 cell lines was induced, followed by exposure of the cells to increasing concentrations of Compound 5 and Compound 6. The results were measured through a proliferation assay.

The subject of a further assay is AMO1 cells. The experiment in a line: Apoptosis by Annexin V and Topro staining. The settings on record: AMO-1 cells. How it is done:
as §1
The PLK1 inhibitor BI2536 and Compound 5 were tested for their activity as individual agents and in combination in AMO1 parental and AMO1-PR cell lines. […] Changes in apoptosis were analyzed using the single agent treatments and their combination using Annexin V and Topro staining. […] Changes in Ikaros and pro-survival signaling in these cell lines was analyzed in response to BI2536 and Compound 5 after 24 and 72 hours of treatment (FIG. 5K).

The test system of a further assay is phospho Ser10-histone H3. The assay is described as follows: phospho Ser10-histone H3 (G2-M marker) flow cytometry. Particulars: vehicle 16.5. How it is done: as §1, §2
For the next assay, the system named is AMO1 control shRNA cells. The assay is described as follows: Proliferation assay in control shRNA cells. The settings on record: Homo sapiens; control shRNA AMO1 cells; read-out: IC50, proliferation. How it is done: as §3, §4
Assay [3] has as its system AMO1-PR (pomalidomide resistant) cell line. The experiment in a line: Proliferation assay. How it is done:
(§5) Proliferation and viability assays: Cell growth curves were determined by monitoring the viability of cells with Trypan blue exclusion on a Vi-Cell-XR (Becton Dickinson, Franklin Lakes, N.J., USA). Proliferation assays were performed in triplicate at least three times (n=3) using (3H)-thymidine incorporation. All data were plotted and analyzed using GraphPad Prism 7 (GraphPad Software, La Jolla, Calif., USA) software, represented as the mean with an error determined as ±s.d.
(§6) Proliferation and viability assay. Cell growth curves were determined by monitoring the viability of cells with Trypan blue exclusion on a Vi-Cell-XR (Becton Dickinson, Franklin Lakes, N.J., USA). Cell lines were plated in triplicate in 96-well round-bottom plates with the indicated drug concentrations or knockdown cells. […] All data were plotted and analyzed using GraphPad Prism 7 (GraphPad Software, La Jolla, Calif., USA) software, represented as the mean with an error determined as ±s.d.

The subject of another assay is AMO1 cell line. The experiment in a line: Proliferation assay. The protocol:
as §5, §6

For a further assay, the system named is K12PE cell line. The experiment in a line: Proliferation assay. How it is done:
as §5, §6

The subject of another assay is K12PE-PR cell line. The experiment in a line: Proliferation assay. The protocol:
as §5, §6

Assay [4] concerns PLK1 signaling in MM1.S cells. The assay is described as follows: Immunoblot of PLK1 signaling. The settings on record: FIG. 2C. How it is done:
Immunoblotting: Immunoblot analysis was performed using WES kits, (Protein Simple, San Jose, Calif., USA) at least two times each (n≥2), where the best representative is shown.
The effects of pomalidomide in isogenic sensitive (EJM) and resistant (EJM-PR) and MM1.S cell lines was analyzed. […] To determine the role of PLK1 in pomalidomide response, EJM and EJM-PR cell lines were treated with pomalidomide and analyzed changes in PLK1 levels and downstream signaling. […] The changes in PLK1 transcript levels were further examined in response to pomalidomide treatment in MM1. […] Confocal microscopy was performed to study changes in PLK1 and CDC25C staining in MM1.S cells and a decrease in PLK1 levels and simultaneous decrease in CDC25C staining in response to pomalidomide and Compound 5 treatments was observed. […] Further analysis of the ChIP-seq datasets of Aiolos confirmed binding of Aiolos on TSS of PLK1 with overlapping transcriptional activation H3K27Ac signature extrapolated from publicly available ChIP-seq datasets in GM12878 cell line (Encode project). Since changes in PLK1 levels are due to decrease in PLK1 transcription in response to antiproliferative compounds, the effects of Aiolos and Ikaros knockdowns on PLK1 levels using MM1.S cells with inducible expression of Aiolos and Ikaros shRNAs were analyzed. Both Aiolos and Ikaros knock down lead to a decrease in PLK1 levels (FIG. 2F), indicating transcriptional regulation of PLK1 by substrates of Cereblon.
For orientation: Immunoblotting shows a protein as a band on a membrane.

The test system of a further assay is U266 cell line. The experiment in a line: Proliferation assay. Particulars: Homo sapiens, U-266, BRAF K601N, p-ERK High, read-out: IC50 (μM) Trametinib. How it is done:
as §5

The subject of the next assay is KMM-1 cell line. The assay is described as follows: Proliferation assay. Particulars: NRAS G13D, p-ERK High, read-out: IC50 (μM) Trametinib. How it is done: as §5
The next assay deals with KARPAS-620 cell line. The assay is described as follows: Proliferation assay. Particulars: p-ERK High, read-out: IC50 (μM) Trametinib. How it is done: as §5
The next assay relates to MOLP-8 cell line. The assay is described as follows: Proliferation assay. The settings on record: Homo sapiens, KRAS K180del, NRAS p.Q61L, p-ERK High, read-out: IC50 (μM) Trametinib. The protocol: as §5
Another assay deals with KMS-20 cell line. The experiment in a line: Proliferation assay. Particulars: KRAS G12S, p-ERK High, read-out: IC50 (μM) Trametinib. The protocol: as §5
Another assay concerns H929 cell line. The assay is described as follows: Proliferation assay. Particulars: Homo sapiens, NCI-H929, NRAS G13D, p-ERK Medium, read-out: IC50 (μM) Trametinib. The protocol: as §5, §3
A further assay relates to Mc-CAR cell line. The assay is described as follows: Proliferation assay. Particulars: McCAR; WT; p-ERK High; read-out: IC50 (μM) Trametinib. The protocol:
as §5, §3

In assay [5] the test system is FOXM1 in AMO1-PR cell line. The assay is described as follows: FOXM1 expression after BIRC5 inhibition. The settings on record: FIG. 26B. From the text: (§7) Inhibition of BIRC5 by YM155 also downregulates FOXM1 and pro-survival signaling.
Assay [6] concerns FOXM1 in K12PE-PR cell line. The assay is described as follows: FOXM1 expression after BIRC5 inhibition. The settings on record: FIG. 26B.
Source text: as §7

Consider `O=C1CC[C@H](N2Cc3c(OCc4ccc(CN5CCOCC5)cc4)cccc3C2=O)C(=O)N1` [Compound 5, (S)-3-(4-((4-(morpholinomethyl)benzyl)oxy)-1-oxoisoindolin-2-yl)piperidine-2,6-dione], for which, in assay [1], the BIRC5 levels entry is “decreased”. The sub-G1 population in the assay on MM cell lines (10 nM) is 4.98; in the assay on MM cell lines (30 nM), 11.3; in the assay with MM cell lines (100 nM), 13.9. Also, the results for the G2-M population in the assay on MM cell lines (10 nM), in the assay on MM cell lines (30 nM) and in the assay on MM cell lines (100 nM) were 12.3, 6.94 and 6.27, respectively. Moreover, the results for the G0-G1 population in the assay on MM cell lines (10 nM), in the assay on MM cell lines (30 nM) and with MM cell lines (100 nM) were 75.8, 78.3 and 75.1, respectively. Further, the IC50 in assay [2] (Homo sapiens, NEK2 knocked-down AMO1 cells) came out at 18.7 nM; in the assay on AMO1 control shRNA cells, 105 nM. Further, in assay [2] (IC50 control cells vs NEK2 knocked-down cells), the “Increase of activity by NEK2 knockdown in comparison to control shRNA cell line” value is given as 5 fold. In addition, the late apoptosis in the assay on AMO1 cells (vehicle 2.24%) is given as 3.07%. Also, the early apoptosis in the assay on AMO1 cells (vehicle 2.69%) is 4.86%. For the same molecule, the “levels of phospho Ser10-histone H3” value in the assay on phospho Ser10-histone H3 (10 nM) is given as 9.3; in the assay on phospho Ser10-histone H3 (30 nM), 6.37; in the assay on phospho Ser10-histone H3 (100 nM) it was 4.53. The “Synergy (Calcusyn) with NEK2 inhibitors (JH295 and rac-CCT 250863) on proliferation” value in [3] (NEK2 inhibitor 0.016-10 μM) is recorded as “strong synergy”; in the assay with AMO1 cell line (AMO1, NEK2 inhibitor 0.016-10 μM), “strong synergy”. Besides, the “Combination analysis (Calcusyn) with YM155 on proliferation” value in assay [3] (in combination with YM155) is given as “synergistic activity”; in the assay on AMO1 cell line (AMO1, in combination with YM155), “synergistic activity”. Also, the “Synergy with trametinib on proliferation” value is given as “strong synergy” in [3] (in combination with trametinib) and “strong synergy” in the assay with AMO1 cell line (AMO1, in combination with trametinib). The “Synergy analysis (Calcusyn) of combination with JQ1 on proliferation” value with K12PE cell line (K12PE cells, in combination with JQ1) is recorded as “synergistic”. Further, the “Synergy of combination with JQ1 on proliferation” value with K12PE-PR cell line (Pom resistant K12PE-PR, in combination with JQ1) is “synergistically decreased proliferation”. Moreover, the “Dose giving decrease in PLK1 levels and downstream signaling relative to pomalidomide” value in assay [4] was “ten times lower dose”. In addition, in assay [4] (MMS.1 cells, increasing concentrations), the PLK1 signaling entry is given as “dose dependent decrease”.
As to `CC(=O)Nc1cccc(-n2c(=O)n(C3CC3)c(=O)c3c(Nc4ccc(I)cc4F)n(C)c(=O)c(C)c32)c1` [Trametinib], the IC50 in the assay on U266 cell line came out at 0.000353 µM; in the assay on KMM-1 cell line, 0.00169 µM; with KARPAS-620 cell line, 0.07 nM; in the assay on MOLP-8 cell line, 0.0117 µM; in the assay on KMS-20 cell line, 0.00222 µM; with H929 cell line it was 0.00328 µM. Moreover, the IC50 in the assay on Mc-CAR cell line was 0.0031 µM; in the assay with AMO1 cell line (Homo sapiens, Amo1, KRAS146T, p-ERK High, read-out: IC50 (μM) Trametinib), 0.0012 µM.
Turning to `COCCn1c2c([n+](Cc3cnccn3)c1C)C(=O)c1ccccc1C2=O.[Br-]` [YM155, 1-(2-methoxyethyl)-2-methyl-4,9-dioxo-3-(pyrazin-2-ylmethyl)-4,9-dihydro-1H-naphtho[2,3-d]imidazol-3-ium bromide], the FOXM1 expression entry in [5] and in [6] was “downregulated FOXM1 expression in a dose dependent manner” in each case. In addition, the EC50 in assay [3] (BIRC5 inhibitor) was determined as 0.12 nM; with AMO1 cell line (Homo sapiens, AMO1, BIRC5 inhibitor), 1.09 nM; with K12PE cell line (K12PE, BIRC5 inhibitor), 1.47 nM; in the assay with K12PE-PR cell line (K12PE-PR, BIRC5 inhibitor), 1.07 nM.
